Experimental data from US20250084079A1, “COMPOSITIONS AND METHODS FOR INHIBITION OF RAS” (TheRas, Inc., priority 2022, published 2025).
Where two headings read alike, the source gives them in different places.

Tests used:
[1] = target: T1, Avi-KRAS WT (1-169) GppNHp/RAF1 RBD-3xFLAG (52-151) (Homo sapiens, UniProt P01116); experiment: RAS-effector PPI HTRF disruption assay, Raf1-GppNHp-KRAS WT; assay type: biochemical
T1 construct: 50 nM Avi-KRAS WT (1-169) GppNHp
Procedure: (§1) A protein:protein interaction (PPI) Homogeneous Time Resolved Fluorescence (HTRF) assay was used to determine the effectiveness of compounds of the present disclosure in disrupting KRAS protein and effector (RAF1 or PIK3 CA) binding.
(§2) The HTRF assay used the following reagents and proteins: (i) 375 nM Avi-KRAS G12D/Q25A (1-169) GppNHp/3×FLAG-PI3KCA (157-299); (ii) 100 nM Avi-KRAS G12D (1-169) GppNHp/RAF1 RBD-3×FLAG (52-151); (iii) 50 nM Avi-KRAS G12V (1-169) GppNHp/RAF1 RBD-3×FLAG (52-151); (iv) 50 nM Avi-KRAS WT (1-169) GppNHp/RAF1 RBD-3×FLAG (52-151); and (v) 35 nM Avi-PI3K RBD CA-3×FLAG; Assay Buffer: 50 mM Tris pH 7.5, 100 mM NaCl, 5 mM MgCl2, 0.1% BSA, 0.01% Tween, 1 mM TCEP, 10% DMSO; Bead Buffer: 50 mM Tris pH 7.5, 0.01% Tween 20; Assay volume: 20 μL (384 well plate-low volume format); and Compound titration: 100-0.02 μM, 3× dilution series.
(§3) The HTRF assay employed the following protocol:
(§4) Compounds were dispensed in assay plate (384-well, Grenier Bione #784075) using Echo (model 555) with dose response settings: 200 nL final volume, titration from 100 μM as a 10-point dilution series. Protein mix was prepared in assay buffer, and dispensed on plates, 10 μL per well, then incubated for 1 h at room temperature, with 700 rpm shaking. Reagents mix was prepared and dispensed on plates, 10 μL per well, then incubated for 1 h at room temperature, with 700 rpm shaking.
(§5) Plates were analyzed on an Envision plate reader using the following setting: Excitation 320 nm, Bandwidth […]; Emission 615 nm, Bandwidth […], Gain 100%, Flashes 100, Lag 60 μs. Data was reported as percentage of activity, with DMSO as 100%. Data was plotted and analyzed using Prism 8. The SPR Kd, biochemical Raf1-KRAS G12D/G12V/WT-GppNHP and PI3KCA-KRAS G12D/Q25A-GppNHp disruption assay IC50 of selected compounds described herein are shown in Table 4.

[2] = target: T2, Avi-KRAS G12V (1-169) GppNHp/RAF1 RBD-3xFLAG (52-151) (Homo sapiens, UniProt P01116, G12V); experiment: RAS-effector PPI HTRF disruption assay, Raf1-GppNHp-KRAS G12V; assay type: biochemical
T2 construct: 50 nM Avi-KRAS G12V (1-169) GppNHp
T2 sequence (P01116 1-169 isoform P01116-2 G12V): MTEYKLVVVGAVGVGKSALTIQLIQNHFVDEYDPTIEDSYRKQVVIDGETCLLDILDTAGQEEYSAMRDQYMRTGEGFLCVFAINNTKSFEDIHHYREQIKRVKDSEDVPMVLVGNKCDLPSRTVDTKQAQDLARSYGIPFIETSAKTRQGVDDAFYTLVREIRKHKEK
Procedure: as §1, §2, §3, §4, §5

[3] = target: T3, Avi-KRAS G12D/Q25A (1-169) GppNHp/3xFLAG-PI3KCA (157-299) (Homo sapiens, UniProt P01116, G12D/Q25A); experiment: RAS-effector PPI HTRF disruption assay, PI3KCA-GppNHp-KRAS G12D/Q25A; assay type: biochemical
T3 construct: 375 nM Avi-KRAS G12D/Q25A (1-169) GppNHp
T3 sequence (P01116 1-169 isoform P01116-2 G12D/Q25A): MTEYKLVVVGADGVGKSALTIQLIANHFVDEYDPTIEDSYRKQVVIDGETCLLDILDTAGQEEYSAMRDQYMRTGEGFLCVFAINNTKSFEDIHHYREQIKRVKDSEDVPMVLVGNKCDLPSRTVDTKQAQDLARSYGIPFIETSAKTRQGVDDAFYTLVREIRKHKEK
Procedure: as §1, §2, §3, §4, §5

[4] = target: T4, Avi-KRAS G12D (1-169) GppNHp/RAF1 RBD-3xFLAG (52-151) (Homo sapiens, UniProt P01116, G12D); experiment: RAS-effector PPI HTRF disruption assay, Raf1-GppNHp-KRAS G12D; assay type: biochemical
T4 construct: 100 nM Avi-KRAS G12D (1-169) GppNHp
T4 sequence (P01116 1-169 isoform P01116-2 G12D): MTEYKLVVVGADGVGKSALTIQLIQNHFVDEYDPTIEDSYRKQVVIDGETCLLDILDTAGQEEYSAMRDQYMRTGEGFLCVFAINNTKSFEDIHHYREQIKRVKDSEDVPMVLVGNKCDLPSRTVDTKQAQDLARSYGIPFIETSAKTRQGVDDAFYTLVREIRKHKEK
Procedure: as §1, §2, §3, §4, §5

[5] = test system: pERK in GP2d cells (KRAS G12D); experiment: Cell-based pERK HTRF assay in GP2d cell; conditions: 60 min incubation
Procedure: A pERK assay (Perkin Elmer) was used to determine the effectiveness of compounds in disrupting KRAS G12D protein/effector signaling in cells.
On Day 1, cells (GP2d) were seeded into 96-well plates at 3×10^4 cells/well in 80 μL complete growth media (DMEM, 10% FBS).
On Day 2, cells were treated with compounds at 0.25% DMSO. The source plate was created with compounds diluted in media at 5-fold the final assay concentration. The compounds were run in a 9-point concentration curve starting at 1 μM, with a half-log dilution between concentrations. 20 μL was transferred onto the cell plates (final volume in wells was 100 μL). Plates were harvested after 60 min incubation by aspirating media and adding kit-supplied 1× supplemented lysis buffer to all wells (50 μL per well). Plates were then placed on a plate shaker and incubated at 850 rpm for an additional 30 min.
Antibody mixture solution is prepared by diluting aliquoted d2 and Eu Cryptate antibodies 1:20 in kit supplied detection buffer, mix the diluted antibodies solutions (1:1 v:v). 4 μL of this solution is then added to a 384-well detection plate (Perkin Elmer; 6008230).
Samples were homogenized by pipetting up and down and then transferred (16 μL of cell lysates) from the 96-well cell culture plate to two wells of the HTRF 384-well detection plate containing the antibody solution. Plates were centrifuged (524 g for 1 min) and allowed to incubate between 4 and 24 h at room temperature. Maximum signal is reached after 4 h incubation time and remains stable over a period of 24 hours. Therefore, readings can be made between 4 and 24 h of incubation. Plates were centrifuged again (524 g for Imin), then analyzed on the EnVision plate reader using the following settings: Excitation 320 nm, Bandwidth 75 nm; Emission 615 nm, Bandwidth 85 nm; Gain 100%; Flashes 100; Lag 60 μs.

T1 sequence (P01116 1-169 isoform P01116-2): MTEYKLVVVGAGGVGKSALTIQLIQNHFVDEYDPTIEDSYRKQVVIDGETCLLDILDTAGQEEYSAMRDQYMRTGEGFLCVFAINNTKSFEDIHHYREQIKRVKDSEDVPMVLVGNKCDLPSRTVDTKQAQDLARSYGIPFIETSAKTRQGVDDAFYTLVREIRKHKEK

SMILES | IC50 [1] | IC50 [2] | IC50 [3] | IC50 [4] | IC50 ([5]; GP2d, 1 h) | IC50 ([5]; read-out: pERK-Gp2D-1 hr)
Nc1nc2c(-c3cc4nc(OC[C@@]56CCCN5C[C@H](F)C6)nc(O[C@H]5CNC[C@@H]5F)c4cc3C(F)(F)F)ccc(F)c2s1 [Compound 30] | > 10 µM | > 10 µM | > 10 µM | 1 to 10 µM | > 1 µM | 
N#Cc1c(N)sc2c(F)ccc(-c3c(Cl)cc4c(O[C@H]5CCN[C@@H]5CO)nc(OC[C@@]56CCCN5C[C@H](F)C6)nc4c3F)c12 (atropisomer, axis not shown) [Compound 76] | ≤ 0.1 µM | ≤ 0.1 µM | ≤ 0.1 µM | ≤ 0.1 µM |  | ≤ 0.1 µM
C[C@@H]1NCC[C@@H]1Oc1nc(OC[C@@]23CCCN2C[C@H](F)C3)nc2c(F)c(-c3ccc(F)c4sc(N)c(C#N)c34)c(Cl)cc12 [Compound 65] | 0.1 to 1 µM | 0.1 to 1 µM | 0.1 to 1 µM | 0.1 to 1 µM | ≤ 0.1 µM | 
Nc1nc2c(-c3cc4nc(OC[C@@]56CCCN5C[C@H](F)C6)nc(O[C@H]5CNC[C@H]5F)c4cc3C(F)(F)F)ccc(F)c2s1 [Compound 31] | > 10 µM | > 10 µM | > 10 µM | 1 to 10 µM | > 1 µM | 
C[C@H]1C[C@H](Oc2nc(OC[C@@]34CCCN3C[C@H](F)C4)nc3c(F)c(-c4ccc(F)c5sc(N)c(C#N)c45)c(Cl)cc23)CN1 [Compound 55] | 1 to 10 µM | > 10 µM | 1 to 10 µM | 1 to 10 µM |  | > 1 µM
N#Cc1c(N)sc2c(F)ccc(-c3c(Cl)cc4c(O[C@@H]5CN[C@H](CO)C5)nc(OC[C@@]56CCCN5C[C@H](F)C6)nc4c3F)c12 [Compound 70] | 0.1 to 1 µM | 0.1 to 1 µM | 0.1 to 1 µM | ≤ 0.1 µM | 0.1 to 1 µM | 
C[C@@H]1C[C@H](Oc2nc(OC[C@@]34CCCN3C[C@H](F)C4)nc3c(F)c(-c4ccc(F)c5sc(N)c(C#N)c45)c(Cl)cc23)CN1 (atropisomer, axis not shown) [Compound 60] | 0.1 to 1 µM | 0.1 to 1 µM | 0.1 to 1 µM | 0.1 to 1 µM |  | ≤ 0.1 µM
N#Cc1c(N)sc2c(F)ccc(-c3ccc4c(O[C@@H]5CCNC5)nc(OC[C@@]56CCCN5C[C@H](F)C6)nc4c3F)c12 [Compound 48] | 1 to 10 µM | > 10 µM | 0.1 to 1 µM | 0.1 to 1 µM | 0.1 to 1 µM | 
N#Cc1c(N)sc2c(F)ccc(-c3c(C(F)(F)F)cc4c(O[C@@H]5CCNC5)nc(N5CC(N6CC7(CC7)C6)C5)nc4c3F)c12 [Compound 67] | 0.1 to 1 µM | 1 to 10 µM | > 10 µM | 0.1 to 1 µM | 0.1 to 1 µM | 
N#Cc1c(N)sc2c(F)ccc(-c3cc4nc(OC[C@@]56CCCN5C[C@H](F)C6)nc(O[C@H]5CNC[C@H]5F)c4cc3C(F)(F)F)c12 [Compound 49] | 1 to 10 µM | 1 to 10 µM | 0.1 to 1 µM | 0.1 to 1 µM | ≤ 0.1 µM | 
N#Cc1c(N)sc2c(F)ccc(-c3c(C(F)(F)F)cc4c(O[C@@H]5CCN[C@@H]5CO)nc(OC[C@@]56CCCN5C[C@H](F)C6)nc4c3F)c12 [Compound 50] | 0.1 to 1 µM | 0.1 to 1 µM | 0.1 to 1 µM | 0.1 to 1 µM | ≤ 0.1 µM | 
Nc1nc2c(-c3c(C(F)(F)F)cc4c(O[C@@H]5CCNC5)nc(OC[C@@]56CCCN5C[C@H](F)C6)nc4c3Cl)ccc(F)c2s1 (atropisomer, axis not shown) [Compound 10] | 1 to 10 µM | 1 to 10 µM | 0.1 to 1 µM | 0.1 to 1 µM |  | 0.1 to 1 µM
N#Cc1c(N)sc2c(F)ccc(-c3c(Cl)cc4c(O[C@@H]5CNC[C@H]5F)nc(OC[C@@]56CCCN5C[C@H](F)C6)nc4c3F)c12 (atropisomer, axis not shown) [Compound 64] | > 10 µM | > 10 µM | > 10 µM | > 10 µM | > 1 µM | 
C[C@@H]1CNCC1Oc1nc(OC[C@@]23CCCN2C[C@H](F)C3)nc2c(F)c(-c3ccc(F)c4sc(N)nc34)c(C(F)(F)F)cc12 (stereo partly drawn) [Compound 15] | 1 to 10 µM | 1 to 10 µM | 1 to 10 µM | 0.1 to 1 µM | 0.1 to 1 µM | 
Nc1nc2c(-c3ncc4c(O[C@@H]5CCNC5)nc(OC[C@@]56CCCN5C[C@H](F)C6)nc4c3F)ccc(F)c2s1 [Compound 24, 7-fluoro-4-(8-fluoro-2-(((2R,7aS)-2-fluorotetrahydro-1H-pyrrolizin-7a(5H)-yl)methoxy)-4-(((R)-pyrrolidin-3-yl)oxy)pyrido[4,3-d]pyrimidin-7-yl)benzo[d]thiazol-2-amine] | > 10 µM | > 10 µM | > 10 µM | > 10 µM | > 1 µM | 
C[C@@H]1C[C@H](Oc2nc(OC[C@@]34CCCN3C[C@H](F)C4)nc3c(F)c(-c4ccc(F)c5sc(N)c(C#N)c45)c(Cl)cc23)CN1 (atropisomer, axis not shown) [Compound 61] | > 10 µM | > 10 µM | > 10 µM | > 10 µM |  | > 1 µM
C[C@@H]1CNCC1Oc1nc(OC[C@@]23CCCN2C[C@H](F)C3)nc2c(F)c(-c3ccc(F)c4scnc34)c(C(F)(F)F)cc12 (stereo partly drawn) [Compound 14] | > 10 µM | > 10 µM | > 10 µM | > 10 µM | > 1 µM | 
N#Cc1c(N)sc2c(F)ccc(-c3ncc4c(O[C@H]5CNC[C@H]5F)nc(OC[C@@]56CCCN5C[C@H](F)C6)nc4c3F)c12 [Compound 51] | > 10 µM | > 10 µM | 1 to 10 µM | 1 to 10 µM | > 1 µM | 
Nc1nc2c(-c3c(C(F)(F)F)cc4c(O[C@H]5CN[C@@H](CO)C5)nc(OCC56CCCN5C[C@H](F)C6)nc4c3F)ccc(F)c2s1 (stereo partly drawn) [Compound 58] | 1 to 10 µM | > 10 µM | 0.1 to 1 µM | 1 to 10 µM | 0.1 to 1 µM | 
C[C@H]1NCC[C@H]1Oc1nc(OC[C@@]23CCCN2C[C@H](F)C3)nc2c(F)c(-c3ccc(F)c4sc(N)c(C#N)c34)c(C(F)(F)F)cc12 (single isomer, unassigned) [Compound 74] | > 10 µM | > 10 µM | > 10 µM | > 10 µM |  | > 1 µM
N#Cc1c(N)sc2c(F)ccc(-c3c(C(F)(F)F)cc4c(O[C@H]5CNC[C@@H]5F)nc(OC[C@@]56CCCN5C[C@H](F)C6)nc4c3F)c12 [Compound 53] | 0.1 to 1 µM | 1 to 10 µM | 0.1 to 1 µM | 0.1 to 1 µM | ≤ 0.1 µM | 
